The target in assay [1] is elastase of P. aeruginosa (Pseudomonas aeruginosa, UniProt P14756). The settings on record: background; known inhibitors effective at rather large concentrations; cited from earlier work.
The target of a further assay is Pseudomonas elastase (Pseudomonas aeruginosa, UniProt P14756). Description: biochemical. Here is the method:
Measurements were performed at 25° C. The reaction solutions (2.5 ml) ocnsisted of 0.1-0.2 mM substrate in 0.1M NaCl-0.05M Tris. HCl-0.01M CaCl2, pH 7.5; all were demetallized. The hydrolysis of substrate was first order and rates were determined from plots of (At -A) versus t (At and A represent absorbance at time t and after completion of the reaction, respectively). Inhibition constants (Ki) were derived from plots of ko /ki versus inhibitor concentration (ko and ki are the observed rate constants in absence and presence of inhibitors, respectively).
The inhibition characteristics of […] for Pseudomonas elastase, using furylacryloyl-Gly-Leu-Ala as the substrate, was determined. […] The Ki value for HS-Ac-Phe-Leu was 0.2 μM.

For assay [2], the system named is Pseudomonas aeruginosa. Description: Experimental model of Pseudomonas keratitis in rabbit eyes, antibiotic plus inhibitor versus antibiotic alone. It counts as in vivo. Conditions: 10 mM inhibitor drops combined with 0.3% gentamicin sulfate. On the procedure: 3. The efficacy of combined treatment with antibiotics and the inhibitor HSAc-Phe-Leu was compared with that of the antibiotics alone using an experimental model of Pseudomonas keratitis in rabbit eyes. The inhibitor at a concentration of 10 mM was given, one drop at a time, every 15 min. for 1 hour after infection with the bacteria, and then hourly for additional 44 hours. The antibiotic (0.3% gentamicin sulfate) was applied every 2 hours, starting 16 hours after infection.

Assay [3] has as its target T1, Pseudomonas aeruginosa elastase (Pseudomonas aeruginosa, UniProt P14756). The assay can be described thus: Protection of the cornea: pure elastase injected into rabbit cornea together with inhibitor. It counts as in vivo. The settings on record: rabbit eye, about 1 μg elastase injected with 0.2 μmole (70 μg) inhibitor. On the procedure:
1. When about 1 μg of the pure elastase is injected into the cornea of a rabbit eye, the cornea "dissolves", swells and perforates within about an hour and a half from the time of the injection of the elastase. When the same amount of enzyme is injected in the presence of 0.2μ mole (70 μg) of the inhibitor mercaptoacetyl-L-phenylalanyl-L leucine, the dissolution effect is postponed to about 9 hours from the injection of the enzyme. […] The perforation of the cornea is prevented.

Assay [4] addresses T1, Pseudomonas aeruginosa elastase. Description: Protection of the cornea: topical inhibitor drops before and after elastase injection into rabbit cornea. It counts as in vivo. The settings on record: 10 mM solution. From the text: 2. […] This series of experiments proves that the mercaptoacetyl dipeptide is an effective agent preventing damage to the eye caused by Pseudomonas aeruginosa elastase.

Assay [5] concerns Pseudomonas aeruginosa. The assay can be described thus: Rabbit eyes infected with P. aeruginosa, topical treatment (Expt. A and B), clinical scores and corneal melting. The settings on record: for Development of extensive corneal melting (%) / Development of extensive corneal melting, No. of eyes with melting/No. of eyes in group: extensive: 30% of corneal area affected; for Development of corneal melting (%) / Development of corneal melting, No. of eyes with melting/No. of eyes in group: rabbit eyes; for Clinical Scores: individual rabbit eyes, scoring of Table 3, maximum 10. It counts as in vivo. On the procedure:
Further experiments were carried out. The schedule of topical treatment is set out in Table 2. The criteria applied to the results are set out in Table 3. […]

What is called Ki is a dissociation constant, usually derived from enzyme kinetics or from competition with a known ligand.

Values joined by “and” are separate entries in the source; they are usually repeats but may differ in a detail not shown here. Equal entries are not always repeated. Where two headings read alike, the source gives them in different places.

Pseudomonas elastase, sequence (P14756 198-498): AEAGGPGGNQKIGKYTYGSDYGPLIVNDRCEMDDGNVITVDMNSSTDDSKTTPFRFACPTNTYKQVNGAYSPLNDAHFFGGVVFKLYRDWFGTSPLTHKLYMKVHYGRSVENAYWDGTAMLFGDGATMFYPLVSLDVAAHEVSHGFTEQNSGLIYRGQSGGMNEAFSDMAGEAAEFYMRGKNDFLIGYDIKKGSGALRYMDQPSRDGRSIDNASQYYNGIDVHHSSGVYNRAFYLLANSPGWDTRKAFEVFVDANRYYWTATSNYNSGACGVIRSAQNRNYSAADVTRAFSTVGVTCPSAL
T1 sequence (P14756 198-498): as above
elastase of P. aeruginosa, sequence (P14756 198-498): as above

On to `O=C(O)CN(CCN(CC(=O)O)CC(=O)O)CC(=O)O` [EDTA], for which the “inhibition of the elastase” value in assay [1] is on record as “inhibited”.

In the case of `CC(C)C[C@H](NC(=O)CS)C(=O)N[C@H](Cc1ccccc1)C(=O)O` [HS-Ac-Leu-D-Phe], the Ki at Pseudomonas elastase (25° C., pH 7.5, substrate furylacryloyl-Gly-Leu-Ala, read-out: Ki) worked out at 34000 nM.

The molecule `CC(C)C[C@H](NC(=O)CS)C(=O)N[C@@H](Cc1ccccc1)C(=O)O` [HS-Ac-Leu-Phe, 2-mercaptoacetyl-L-leucyl-L-phenylalanine] had a Ki on Pseudomonas elastase of 1500 nM.

Regarding `CC(C)C[C@H](NC(=O)[C@H](Cc1ccccc1)NC(=O)CS)C(=O)O` [HS-Ac-Phe-Leu, mercaptoacetyl-L-phenylalanyl-L-leucine], the “severity of the damage caused to the eyes, versus antibiotic alone” value in the assay on Pseudomonas aeruginosa [2] is “significantly lower”. The “perforation of the cornea” value in assay [3] is given as “prevented”. For the same molecule, the “damage caused, part of the cornea affected” value in assay [3] (after about 9 hours) is listed as at most 10%. Also, the “time from injection of the enzyme to which the dissolution effect of the cornea is postponed” value in assay [3] (without inhibitor about an hour and a half) is “about 9 hours”. The same molecule showed a Ki at Pseudomonas elastase of 200 nM. Also, the “dissolution of the cornea” value in assay [4] (topical drops before and after enzyme injection) is “no "dissolution" of the cornea takes place at all”. In addition, in assay [4] (topical drops, remains for many hours after cessation of treatment), the “appearance of the eye” value is given as “entirely normal”.

As for `c1cnc2c(c1)ccc1cccnc12` [O-phenanthroline], in assay [1], the “inhibition of the elastase” value is listed as “inhibited”.

As for gentamicin sulfate, the “Development of extensive corneal melting (%)” value came out at 27% in the assay with Pseudomonas aeruginosa [5] (28 h after infection) and 60% in the assay on Pseudomonas aeruginosa [5] (48 h after infection). Besides, the results for the “Development of extensive corneal melting, No. of eyes with melting/No. of eyes in group” value in the assay with Pseudomonas aeruginosa [5] (28 h after infection) and in the assay on Pseudomonas aeruginosa [5] (48 h after infection) were 4/15 and 9/15, respectively. The entries for the “Development of corneal melting (%)” value in the assay with Pseudomonas aeruginosa [5] (28 h after infection) and with Pseudomonas aeruginosa [5] (48 h after infection) were 73% and 93%, respectively. The “Development of corneal melting, No. of eyes with melting/No. of eyes in group” value in the assay on Pseudomonas aeruginosa [5] (28 h after infection) is 11/15; with Pseudomonas aeruginosa [5] (48 h after infection), 14/15. Further, the “Clinical Scores” value was 7 and 4 and 3 and 6 and 1 in the assay with Pseudomonas aeruginosa [5] (28 hours after infection, Expt. A); 3 and 2 and 1 and 6 in the assay on Pseudomonas aeruginosa [5] (28 hours after infection, Expt. B); 7 and 10 and 6 and 4 and 3 in the assay with Pseudomonas aeruginosa [5] (48 hours after infection, Expt. A); 6 and 7 and 5 and 4 in the assay with Pseudomonas aeruginosa [5] (48 hours after infection, Expt. B).

(Values after patent US4613587A, “Ophthalmic preparations” (Yeda Research and Development Co. Ltd., priority 1983, dated 1986).)
